Laboratory results as given in US9200319B2, “Nucleotides and nucleosides and methods for their use in DNA sequencing” (Lasergen, Inc., priority 2008, dated 2015).
Values joined by “and” are separate entries in the source; they are usually repeats but may differ in a detail not shown here. Identical values can stand only once.

Legend:
[1] = UV-cleavage of incorporated nucleotide analogs with 365 nm light; conditions: 365 nm UV light, 50 mM NaN3; time at which half the incorporated analog is cleaved
Method: Cleavage of the terminating substituted 2-nitrobenzyl group when analogs are incorporated into the primer strand with 365 nm UV light allows for the next cycle of incorporation to resume. Without being bound by theory, at least two factors were found typically influence UV-cleavage rates of incorporated nucleotide analogs: a) stereo-chemistry of the α-carbon substitution of the 2-nitrobenzyl group, and b) substitution on the benzyl ring. Incorporation on a matched template is performed as described above using 1 μM concentration to extend the primer strand. Ten identical tubes are used for each incorporation experiment, after which NaN3 is added to a final concentration of 50 mM. Extended primer reactions are exposed to 365 nm light for various time points using the UV deprotector device described by Wu et al. (2007, which is incorporated herein by reference) and analyzed using an AB model 377 DNA sequencer. The quantitative data are plotted linearly as product formation versus exposure time, and the time point at which half the nucleotide analog is cleaved is calculated, as a DT50 value. […] For example, based on these examples, the ds2 analogs show faster cleavage rates (e.g., lower DT50 values) compared with ds1 analogs. Furthermore, substitution of a methoxy group at the 4 position on the benzyl ring further increases the rate of UV-cleavage, albeit for ds2 analogs only (e.g., the DT50 value for 5p098-ds2 is […] versus that of 1.9 sec for 6p087-ds2). Based on the examples summarized in Table 3, substitution at the α-carbon of the 2-nitrobenzyl ring increases UV-cleavage in a stereospecific manner.

[2] = target: T1, THERMINATOR™ DNA polymerase (Thermococcus sp., UniProt Q56366, A485L/D141A/E143A); assay: biochemical; design: species or system Thermococcus species 9° N-7; conditions: IC50 for incorporation, concentration at which the compound incorporates on half the primer-template complexes; complement template base
T1 construct: purchased New England Biolabs
Method: Natural and modified nucleotides were tested for incorporation efficiency using the “polymerase end point assay” (Wu et al., 2007, which is incorporated herein by reference). This assay examines incorporation efficiency on matched and mismatched template bases. Incorporation efficiency is measured by determining the concentration at which the compound incorporates on half the primer-template complexes (IC50). Titrations of increasing compound concentration were performed to generate curves from which the IC50 can be determined.
(§1) The sequence of the template DNA is selected depending on which compound will be tested. For example, the first interrogation base after the primer in the template sequence is the complement base of the compound when measuring incorporation efficiency, and one of three mismatched bases when measuring mismatch discrimination properties.
(§2) To the annealed reaction, a DNA polymerase (e.g., THERMINATOR™ DNA polymerase, 0.25 units per reaction, New England Biolabs), 1× Thermopol Buffer, and a known concentration of either natural or modified nucleotide are added to each 10 μL reaction and incubated at 75° C. for 10 minutes, cooled on ice, and quenched with 10 μL of stop solution (98% formamide: 10 mM Na2EDTA, pH=8.0, 25 mg/ml Blue Dextran). Stopped reactions are heated to 75° C. for 30 seconds to denature the DNA, and then placed on ice. The extension products are analyzed on a 10% Long Ranger (Lonza) polyacrylamide gel using an ABI model 377 DNA sequencer. Additional details are provided in Example 1, below.
Polymerase Assays. Natural and modified nucleotides were tested for incorporation efficiency using the “polymerase end point assay” (Wu et al., 2007, which is incorporated herein by reference). This assay examines incorporation efficiency on matched and mismatched template bases. Incorporation efficiency is measured by determining the concentration at which the compound incorporates on half the primer-template complexes (IC50). Titrations of increasing compound concentration were performed to generate curves from which the IC50 can be determined.
The assay is performed by first annealing 5 nM of BODIPY-FL labeled primer with 40 nM template DNA in 1× Thermopol Buffer (20 mM Tris-HCl, pH 8.8; 10 mM (NH4)2SO4; 10 mM KCl; 2 mM MgSO4; 0.1% Triton X-100, New England BioLabs).
as §1, with “The temperature cycle to complete primer annealing is 80° C. for 30 seconds, 57° C. for 30 seconds, then cooling to 4° C. The” for “The”
as §2, with “sequencer.” for “sequencer. Additional details are provided in Example 1, below.”

[3] = chemical cleavage by palladium-catalysed hydrogenolysis; conditions: hydrogen, ethanol, room temperature; for time to complete cleavage to thymidine: heterogenous catalyst, palladium on activated carbon (10 wt. %), TLC/HPLC
Method: Chemical Cleavage Using Heterogenous Palladium Catalyst: To a solution of 5-(benzyloxy)methyl-2′-deoxyuridine (29 mg, 0.082 mmol) in absolute ethanol (2 mL) under a nitrogen atmosphere was added 10 mg of palladium on activated carbon (10 wt. %, 10 mg) (CAUTION: flammable solid! Ensure handling in oxygen-free atmosphere). The mixture was flushed with hydrogen gas and stirred at room temperature for 30 minutes while being monitored by TLC every five minutes. The mixture was filtered, concentrated under reduced pressure, and dried under vacuum to yield thymidine (18 mg, 88%) that was identified by comparison to the authentic sample (TLC and ^1H NMR).
Chemical Cleavage Using Homogenous Palladium Catalyst: To a solution of 5-(benzyloxy)methyl-2′-deoxyuridine (3.48 mg, 0.01 mmol) in absolute ethanol (0.1 mL) under a nitrogen atmosphere a solution of sodium tetrachloropalladate (II) (0.6 mg, 0.002 mmol) in absolute ethanol (0.9 mL) was added. The mixture was flushed with hydrogen gas and stirred at room temperature while being monitored by TLC every five minutes. After 20 minutes TLC indicated complete disappearance of starting material. The sole cleavage product was identified to be thymidine by comparison to the authentic sample on TLC.
(§3) Chemical Cleavage Using Heterogenous Palladium Catalyst: To a solution of 5-(2-isopropylbenzyloxy)methyl-2′-deoxyuridine in absolute ethanol (10 mM, 1 mL) under a nitrogen atmosphere was added of palladium on activated carbon (10 wt. %, 2 mg) (CAUTION: flammable solid! Ensure handling in oxygen-free atmosphere). The mixture was flushed with hydrogen gas and stirred at room temperature for five minutes while being monitored by TLC every one minute. After five minutes TLC indicated complete disappearance of starting material. The sole cleavage product was identified to be thymidine by comparison to the authentic sample on TLC.
as §3, with “To” for “To a”, “5-(2-phenylbenzyloxy)methyl-2′-deoxyuridine” for “5-(2-isopropylbenzyloxy)methyl-2′-deoxyuridine”, “added” for “added of”, “1” for “one”
as §3, with “5-(2,6-dimethylbenzyloxy)methyl-2′-deoxyuridine” for “5-(2-isopropylbenzyloxy)methyl-2′-deoxyuridine”, “added” for “added of”, “1” for “one”
To a solution of 5-benzyloxy-2′-deoxyuridine (10 mg) in ethanol (1 mL) was added Pd/C (10%, 10 mg), and the mixture was stirred for five minutes. Hydrogen was introduced to the system via a balloon and the reaction mixture was stirred at room temperature. Aliquots (5 μL) were taken out from the reaction mixture at various time point intervals and were analyzed by thin layer chromatography and HPLC. Complete cleavage to thymidine was observed after ten minutes at room temperature (Scheme 42 and FIG. 4). The intermediate of the cleavage was identified to be 5-hydroxymethyl-dU generated from initial removal of benzyl group, and HOMedU was further reduced to thymidine. […]

T1 sequence (Q56366 whole entry D141A/E143A/A485L): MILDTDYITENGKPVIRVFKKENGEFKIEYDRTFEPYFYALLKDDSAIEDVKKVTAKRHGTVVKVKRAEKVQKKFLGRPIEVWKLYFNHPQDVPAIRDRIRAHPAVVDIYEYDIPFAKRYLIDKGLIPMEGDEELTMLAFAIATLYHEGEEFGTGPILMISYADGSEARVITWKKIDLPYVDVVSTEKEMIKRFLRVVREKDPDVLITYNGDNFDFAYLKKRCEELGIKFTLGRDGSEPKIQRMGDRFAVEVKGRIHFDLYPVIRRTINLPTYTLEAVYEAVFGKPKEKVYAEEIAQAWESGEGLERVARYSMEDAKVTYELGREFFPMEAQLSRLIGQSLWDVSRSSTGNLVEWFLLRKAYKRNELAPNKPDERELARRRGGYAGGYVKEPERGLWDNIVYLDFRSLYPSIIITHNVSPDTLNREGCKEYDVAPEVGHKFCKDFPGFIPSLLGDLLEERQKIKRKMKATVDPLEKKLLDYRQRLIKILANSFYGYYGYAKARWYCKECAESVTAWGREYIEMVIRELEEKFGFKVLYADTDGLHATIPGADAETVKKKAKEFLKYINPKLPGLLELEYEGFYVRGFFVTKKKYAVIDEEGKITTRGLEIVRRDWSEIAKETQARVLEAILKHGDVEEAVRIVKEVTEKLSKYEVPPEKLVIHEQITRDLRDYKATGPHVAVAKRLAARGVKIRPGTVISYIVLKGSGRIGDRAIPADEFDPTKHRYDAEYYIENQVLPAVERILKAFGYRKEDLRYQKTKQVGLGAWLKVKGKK

For `CC(C)C(OCc1cn([C@H]2C[C@H](O)[C@@H](COP(=O)(O)OP(=O)(O)OP(=O)(O)O)O2)c2ncnc(N)c12)c1ccccc1[N+](=O)[O-]` (single isomer, unassigned) [5p098-ds1, 7-[1-(2-nitrophenyl)-2-methyl-propyloxy]methyl-7-deaza-2′-deoxyadenosine-5′-triphosphate], the “DT50” value [1] was 7.5 ± 0.8 s and the IC50 [2] was 6.7 ± 0.8 nM.
For `CC(C)C(OCc1cn([C@H]2C[C@H](O)[C@@H](COP(=O)(O)OP(=O)(O)OP(=O)(O)O)O2)c2ncnc(N)c12)c1ccccc1[N+](=O)[O-]` (single isomer, unassigned) [5p098-ds2, 7-[1-(2-nitrophenyl)-2-methyl-propyloxy]methyl-7-deaza-2′-deoxyadenosine-5′-triphosphate], the “DT50” value [1] was 3.3 s and 3.3 ± 0.2 s and the IC50 [2] was 5.7 ± 1.1 nM.
For `CC(C)C(OCc1cn([C@H]2C[C@H](O)[C@@H](COP(=O)(O)OP(=O)(O)OP(=O)(O)O)O2)c2ncnc(N)c12)c1c([N+](=O)[O-])cccc1[N+](=O)[O-]` (single isomer, unassigned) [6p057-ds1, 7-[1-(2,6-dinitrophenyl)-2-methyl-propyloxy]methyl-7-deaza-2′-deoxyadenosine-5′-triphosphate], the “DT50” value [1] was 7.3 ± 1.2 s and the IC50 [2] was 5.2 ± 0.2 nM.
In the case of `CC(C)C(OCc1cn([C@H]2C[C@H](O)[C@@H](COP(=O)(O)OP(=O)(O)OP(=O)(O)O)O2)c2ncnc(N)c12)c1c([N+](=O)[O-])cccc1[N+](=O)[O-]` (single isomer, unassigned) [6p057-ds2, 7-[1-(2,6-dinitrophenyl)-2-methyl-propyloxy]methyl-7-deaza-2′-deoxyadenosine-5′-triphosphate], the “DT50” value [1] is reported as 4.8 ± 0.5 s and the IC50 [2] is reported as 5.8 ± 1.1 nM.
For `COc1ccc(C(OCc2cn([C@H]3C[C@H](O)[C@@H](COP(=O)(O)OP(=O)(O)OP(=O)(O)O)O3)c3ncnc(N)c23)C(C)C)c([N+](=O)[O-])c1` (single isomer, unassigned) [6p087-ds1, 7-[1-(4-methoxy-2-nitrophenyl)-2-methyl-propyloxy]methyl-7-deaza-2′-deoxyadenosine-5′-triphosphate], the “DT50” value [1] was 8.8 ± 0.6 s and the IC50 [2] was 15 ± 1 nM.
In the case of `COc1ccc(C(OCc2cn([C@H]3C[C@H](O)[C@@H](COP(=O)(O)OP(=O)(O)OP(=O)(O)O)O3)c3ncnc(N)c23)C(C)C)c([N+](=O)[O-])c1` (single isomer, unassigned) [6p087-ds2, 7-[1-(4-methoxy-2-nitrophenyl)-2-methyl-propyloxy]methyl-7-deaza-2′-deoxyadenosine-5′-triphosphate], the “DT50” value [1] is reported as 1.9 s and 1.9 ± 0.1 s and the IC50 [2] is reported as 18 ± 3 nM.
For `CC(C)C(OCc1cn([C@H]2C[C@H](O)[C@@H](CO)O2)c(=O)[nH]c1=O)c1ccccc1` (stereo partly drawn) [5-(1-phenyl-2-methyl-propyloxy)methyl-2′-deoxyuridine], the “time to complete cleavage to thymidine” value [3] was 240 min.
With `Cc1cccc(C)c1COCc1cn([C@H]2C[C@H](O)[C@@H](CO)O2)c(=O)[nH]c1=O` [5-(2,6-dimethylbenzyloxy)methyl-2′-deoxyuridine] the “time to complete cleavage to thymidine” value [3] was “five”.
With `CC(C)c1ccccc1COCc1cn([C@H]2C[C@H](O)[C@@H](CO)O2)c(=O)[nH]c1=O` [5-(2-isopropylbenzyloxy)methyl-2′-deoxyuridine] the “time to complete cleavage to thymidine” value [3] was “five”.
In the case of `O=c1[nH]c(=O)n([C@H]2C[C@H](O)[C@@H](CO)O2)cc1COCc1ccccc1-c1ccccc1` [5-(2-phenylbenzyloxy)methyl-2′-deoxyuridine], the “time to complete cleavage to thymidine” value [3] is reported as “five”.
For `O=c1[nH]c(=O)n([C@H]2C[C@H](O)[C@@H](CO)O2)cc1COCc1ccccc1` [5-(benzyloxy)methyl-2′-deoxyuridine], the “time to complete cleavage to thymidine” value [3] was “ten” and the “time to complete disappearance of starting material (cleavage to thymidine)” value ([3]; homogenous catalyst, sodium tetrachloropalladate (II), TLC) was 20 min.
